Assay results: US20100298141A1, “SUBSTITUTED PYRIDINE N-OXIDE HERBICIDES” (E. I. DU PONT DE NEMOURS AND COMPANY, priority 2007, published 2010)

Tests used:
Assay in all cases: Test F preemergence test
large crabgrass = format: in vivo, Digitaria sanguinalis; conditions: scale 0 to 100
How it was run: (§1)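 Test chemicals were formulated in a non-phytotoxic solvent mixture with surfactant and applied preemergence to planted seeds or postemergence to sugarcane plants. Plants were kept in a greenhouse for 14 to 21 days, then visually evaluated against controls.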

green foxtail = format: in vivo, Setaria viridis; conditions: scale 0 to 100
How it was run: as §1

goosegrass = format: in vivo, Eleusine indica; conditions: scale 0 to 100
How it was run: as §1

johnsongrass = format: in vivo, Sorghum halepense; conditions: scale 0 to 100
How it was run: as §1

pitted morningglory = format: in vivo, Ipomoea lacunosa; conditions: scale 0 to 100
How it was run: as §1

purple nutsedge = format: in vivo, Cyperus rotundus; conditions: scale 0 to 100
How it was run: as §1

common ragweed = format: in vivo, Ambrosia elation; conditions: scale 0 to 100
How it was run: as §1

barnyardgrass = format: in vivo, Echinochloa crus-galli
How it was run: as §1

southern sandbur = format: in vivo, Cenchrus echinatus; conditions: scale 0 to 100
How it was run: as §1

Italian ryegrass = format: in vivo, Lolium multiflorum; conditions: scale 0 to 100
How it was run: as §1

common purslane = format: in vivo, Portulaca oleracea; conditions: scale 0 to 100
How it was run: as §1

common groundsel = format: in vivo, Senecio vulgaris; conditions: 125 g ai/ha, preemergence, scale 0 to 100
How it was run: as §1

annual bluegrass = format: in vivo, Poa annua; conditions: scale 0 to 100
How it was run: as §1

naked crabgrass = format: in vivo, Digitaria nuda; conditions: scale 0 to 100
How it was run: as §1

itchgrass = format: in vivo, Rottboellia cochinchinensis; conditions: scale 0 to 100
How it was run: as §1

field bindweed = format: in vivo, Convolvulus arvensis; conditions: scale 0 to 100
How it was run: as §1

SMILES: CC(c1c(C(F)(F)F)nn(C)c1OCC(F)(F)F)S(=O)(=O)c1cccc[n+]1[O-] (racemic) [Compound 33]
- Plant response rating, Crabgrass, Large (large crabgrass; 16 g ai/ha, preemergence): 15
- Crabgrass, Large plant response rating (large crabgrass; 62 g ai/ha, Preemergence): 85
- Crabgrass, Large plant response rating (large crabgrass; 125 g ai/ha, preemergence): 100
- Plant response rating, Crabgrass, Large (large crabgrass; Preemergence, 31 g ai/ha): 35
- Plant response rating, Foxtail, Green (green foxtail; 16 g ai/ha, preemergence): 0
- Foxtail, Green plant response rating (green foxtail; 62 g ai/ha, Preemergence): 100
- Foxtail, Green plant response rating (green foxtail; 125 g ai/ha, preemergence): 100
- Plant response rating, Foxtail, Green (green foxtail; Preemergence, 31 g ai/ha): 50
- Plant response rating, Goosegrass (goosegrass; 16 g ai/ha, preemergence): 60
- Goosegrass plant response rating (goosegrass; 62 g ai/ha, Preemergence): 98
- Goosegrass plant response rating (goosegrass; 125 g ai/ha, preemergence): 100
- Plant response rating, Goosegrass (goosegrass; Preemergence, 31 g ai/ha): 95
- Plant response rating, Johnsongrass (johnsongrass; 16 g ai/ha, preemergence): 30
- Johnsongrass plant response rating (johnsongrass; 62 g ai/ha, Preemergence): 100
- Johnsongrass plant response rating (johnsongrass; 125 g ai/ha, preemergence): 100
- Plant response rating, Johnsongrass (johnsongrass; Preemergence, 31 g ai/ha): 60
- Plant response rating, Morningglory (pitted morningglory; 16 g ai/ha, preemergence): 0
- Morningglory plant response rating (pitted morningglory; 62 g ai/ha, Preemergence): 98
- Morningglory plant response rating (pitted morningglory; 125 g ai/ha, preemergence): 100
- Plant response rating, Morningglory (pitted morningglory; Preemergence, 31 g ai/ha): 15
- Plant response rating, Purple Nutsedge (purple nutsedge; 16 g ai/ha, preemergence): 0
- Purple Nutsedge plant response rating (purple nutsedge; 62 g ai/ha, Preemergence): 85
- Purple Nutsedge plant response rating (purple nutsedge; 125 g ai/ha, preemergence): 85
- Plant response rating, Purple Nutsedge (purple nutsedge; Preemergence, 31 g ai/ha): 35
- Plant response rating, Ragweed (common ragweed; 16 g ai/ha, preemergence): 20
- Ragweed plant response rating (common ragweed; 125 g ai/ha, preemergence): 75
- Plant response rating, Ragweed (common ragweed; Preemergence, 62 g ai/ha): 60
- Plant response rating, Ragweed (common ragweed; Preemergence, 31 g ai/ha): 40
- Plant response rating, Barnyardgrass (barnyardgrass; 16 g ai/ha, preemergence, scale 0 to 100 (0 no effect, 100 complete control)): 100
- Barnyardgrass plant response rating (barnyardgrass; 62 g ai/ha, Preemergence, scale 0 to 100): 100
- Barnyardgrass plant response rating (barnyardgrass; 125 g ai/ha, preemergence, scale 0 to 100): 100
- Plant response rating, Barnyardgrass (barnyardgrass; Preemergence, 31 g ai/ha, scale 0 to 100): 100
- Plant response rating, Sandbur (southern sandbur; 16 g ai/ha, preemergence): 100
- Sandbur plant response rating (southern sandbur; 125 g ai/ha, preemergence): 100
- Plant response rating, Sandbur (southern sandbur; Preemergence, 62 g ai/ha): 100
- Plant response rating, Sandbur (southern sandbur; Preemergence, 31 g ai/ha): 100
- Plant response rating, Ryegrass, Italian (Italian ryegrass; 16 g ai/ha, preemergence): 60
- Ryegrass, Italian plant response rating (Italian ryegrass; 125 g ai/ha, preemergence): 100
- Plant response rating, Ryegrass, Italian (Italian ryegrass; Preemergence, 62 g ai/ha): 100
- Plant response rating, Ryegrass, Italian (Italian ryegrass; Preemergence, 31 g ai/ha): 100
- Plant response rating, Purslane (common purslane; 16 g ai/ha, preemergence): 0
- Purslane plant response rating (common purslane; 62 g ai/ha, Preemergence): 65
- Purslane plant response rating (common purslane; 125 g ai/ha, preemergence): 100
- Plant response rating, Purslane (common purslane; Preemergence, 31 g ai/ha): 20
- Groundsel plant response rating (common groundsel): 100
- Plant response rating, Bluegrass (annual bluegrass; 16 g ai/ha, preemergence): 35
- Bluegrass plant response rating (annual bluegrass; 62 g ai/ha, Preemergence): 100
- Bluegrass plant response rating (annual bluegrass; 125 g ai/ha, preemergence): 100
- Plant response rating, Bluegrass (annual bluegrass; Preemergence, 31 g ai/ha): 65
- Plant response rating, Crabgrass, Naked (naked crabgrass; 16 g ai/ha, preemergence): 75
- Crabgrass, Naked plant response rating (naked crabgrass; 62 g ai/ha, Preemergence): 100
- Crabgrass, Naked plant response rating (naked crabgrass; 125 g ai/ha, preemergence): 100
- Plant response rating, Itchgrass (itchgrass; 16 g ai/ha, preemergence): 25
- Itchgrass plant response rating (itchgrass; 62 g ai/ha, Preemergence): 80
- Itchgrass plant response rating (itchgrass; 125 g ai/ha, preemergence): 100
- Plant response rating, Itchgrass (itchgrass; Preemergence, 31 g ai/ha): 40
- Plant response rating, Field Bindweed (field bindweed; 16 g ai/ha, preemergence): 0
- Field Bindweed plant response rating (field bindweed; 62 g ai/ha, Preemergence): 50
- Field Bindweed plant response rating (field bindweed; 125 g ai/ha, preemergence): 60
- Plant response rating, Field Bindweed (field bindweed; Preemergence, 31 g ai/ha): 0
